The record followed here is patent US10766884B2 (Pfizer Inc., priority 2018, dated 2020).

One assay concerns the target CDK6 (Homo sapiens (Human), UniProt Q00534). The assay can be described thus: Phospho-Serine 795 Rb ELISA assay in MV4-11 cells. It is filed as cell-based. As to conditions: overnight treatment, phospho-Rb S795, read-out: CDK6 pRB S795 ELISA MV4-11 cells IC50. The method, then:
(§1) JEKO-1 or MV4-11 cells were seeded at 15,000 or 20,000 cells per well, respectively, in 100 μL growth media and allowed to incubate at 37° C. with 5% CO2 overnight. The following day, compounds were serially diluted from a 10 mM top dose for an 11-point 3-fold dilution curve in DMSO. Compounds were intermediately diluted 1:200 into growth media prior to diluting 1:5 on cells for final concentration 10 μM to 0.1 nM in 0.1% DMSO on cells. JEKO-1 and MV4-11 cells were treated were treated overnight, at 37° C. with 5% CO2. Cells were lysed in 100 μL/well CST lysis buffer on ice and transferred to pre-coated and blocked anti-phospho-Ser795 Rb ELISA plates for overnight incubation at 4° C. Plates were washed to remove residual, unbound cellular proteins and total Rb detection antibody added for 90 minutes at 37° C. Following wash to remove unbound total Rb antibody, the HRP tagged antibody was allowed to bind for 30 minutes at 37° C. Following wash to remove unbound HRP antibody, Glo Substrate Reagent was added and incubated protected from light for 5 to 10 minutes. Plates were read in luminescence mode and IC50 values calculated.
In general terms: In an ELISA, binding on a coated surface is turned into a signal by an enzyme label.

A further assay addresses CDK6/Cyclin D3 (Homo sapiens (Human), UniProt Q00534). As to the kind of experiment: CDK6/Cyclin D3 mobility shift assay. It counts as biochemical. As to conditions: activated CDK6/Cyclin D3, 3.5 mM ATP, Morrison fit; read-out: CDK6_D3 Ki.
The target in a further assay is CDK4 (Homo sapiens (Human), UniProt P11802). The assay can be described thus: Phospho-Serine 795 Rb ELISA assay in JEKO-1 cells. It is filed as cell-based. As to conditions: overnight treatment, phospho-Rb S795, read-out: CDK4 pRB S795 ELISA JEKO-1 cells IC50. As to the method:
as §1

Another assay addresses CDK4/Cyclin D1 (Homo sapiens (Human), UniProt P11802). As to the kind of experiment: CDK4/Cyclin D1 mobility shift assay. It is filed as biochemical. The settings on record: activated CDK4/Cyclin D1, 3.5 mM ATP, Morrison fit; read-out: CDK4D1 Ki.

For orientation: IC50 means the concentration that gives 50% inhibition. For orientation: Ki means the equilibrium dissociation constant of an inhibitor or competing ligand from its target.

Sequence of CDK4/Cyclin D1 (P11802 whole entry): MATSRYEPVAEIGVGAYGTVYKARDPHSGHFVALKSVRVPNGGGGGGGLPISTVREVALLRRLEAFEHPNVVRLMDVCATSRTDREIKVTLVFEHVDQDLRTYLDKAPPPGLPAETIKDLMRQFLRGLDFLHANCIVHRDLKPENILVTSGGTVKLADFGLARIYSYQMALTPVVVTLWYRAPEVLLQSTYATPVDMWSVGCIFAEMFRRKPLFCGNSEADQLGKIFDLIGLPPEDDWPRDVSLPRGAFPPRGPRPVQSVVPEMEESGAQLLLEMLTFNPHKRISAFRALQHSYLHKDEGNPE
Sequence of CDK4/Cyclin D1 (P24385 whole entry partner): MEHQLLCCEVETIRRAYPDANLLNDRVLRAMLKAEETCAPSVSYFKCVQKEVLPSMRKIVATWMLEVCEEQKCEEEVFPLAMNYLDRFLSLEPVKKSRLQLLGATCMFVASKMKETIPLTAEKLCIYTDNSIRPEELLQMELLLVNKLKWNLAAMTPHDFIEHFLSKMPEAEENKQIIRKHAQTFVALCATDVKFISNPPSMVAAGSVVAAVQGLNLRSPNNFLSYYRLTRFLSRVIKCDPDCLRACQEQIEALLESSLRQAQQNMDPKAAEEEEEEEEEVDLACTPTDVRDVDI
Sequence of CDK4 (P11802 2-303): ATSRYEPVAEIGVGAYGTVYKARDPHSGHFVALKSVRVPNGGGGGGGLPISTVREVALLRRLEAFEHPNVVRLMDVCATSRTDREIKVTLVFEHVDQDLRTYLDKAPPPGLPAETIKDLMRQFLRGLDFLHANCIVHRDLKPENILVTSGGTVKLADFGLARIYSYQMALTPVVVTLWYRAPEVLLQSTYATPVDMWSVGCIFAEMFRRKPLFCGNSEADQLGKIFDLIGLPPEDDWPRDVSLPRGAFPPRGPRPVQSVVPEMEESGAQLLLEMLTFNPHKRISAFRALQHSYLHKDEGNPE
Sequence of CDK4 (P24385 whole entry partner): as the sequence (P24385 whole entry partner) above
Sequence of CDK6/Cyclin D3 (Q00534 whole entry): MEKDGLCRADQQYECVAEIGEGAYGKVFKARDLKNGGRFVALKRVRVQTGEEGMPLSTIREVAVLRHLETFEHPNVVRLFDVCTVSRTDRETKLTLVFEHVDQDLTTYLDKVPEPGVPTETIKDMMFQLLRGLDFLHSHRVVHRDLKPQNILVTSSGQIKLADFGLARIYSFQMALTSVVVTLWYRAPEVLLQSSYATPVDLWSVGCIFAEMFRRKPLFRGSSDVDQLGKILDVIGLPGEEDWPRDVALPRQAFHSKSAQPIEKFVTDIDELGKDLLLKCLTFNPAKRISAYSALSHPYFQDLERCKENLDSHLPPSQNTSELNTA
Sequence of CDK6/Cyclin D3 (P30281 whole entry partner): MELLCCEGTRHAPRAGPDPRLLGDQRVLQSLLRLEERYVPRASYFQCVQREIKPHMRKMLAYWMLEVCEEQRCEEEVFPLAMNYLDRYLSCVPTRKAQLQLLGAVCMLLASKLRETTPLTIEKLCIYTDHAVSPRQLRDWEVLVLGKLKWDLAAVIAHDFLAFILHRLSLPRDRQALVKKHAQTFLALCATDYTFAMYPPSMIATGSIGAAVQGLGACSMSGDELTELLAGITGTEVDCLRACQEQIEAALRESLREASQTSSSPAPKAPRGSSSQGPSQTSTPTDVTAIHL
Sequence of CDK6 (Q00534 whole entry): as the sequence (Q00534 whole entry) above
Sequence of CDK6 (P30281 whole entry partner): as the sequence (P30281 whole entry partner) above

As for `C[C@@H]1COCc2nc3c(F)cc(-c4nc(N[C@@H]5CCN(S(C)(=O)=O)C[C@H]5O)ncc4Cl)cc3n21` [Example A11], the IC50 at CDK6 worked out at 144 nM; on CDK4, 123 nM. The inhibitory constant (Ki) at CDK6/Cyclin D3 was 3 nM; at CDK4/Cyclin D1 it was 0.3 nM.
Turning to `CC(C)n1c(C(C)(C)O)nc2c(F)cc(-c3nc(N[C@@H]4CCN(S(C)(=O)=O)C[C@H]4O)ncc3Cl)cc21` [Example A91, (3R,4R)-4-({5-chloro-4-[4-fluoro-2-(2-hydroxypropan-2-yl)-1-(propan-2-yl)-1H-benzimidazol-6-yl]pyrimidin-2-yl}amino)-1-(methanesulfonyl)piperidin-3-ol], the figures for the IC50 on CDK6 and at CDK4 were 25.7 nM and 14.9 nM, respectively. Further, the results for the Ki on CDK6/Cyclin D3 and on CDK4/Cyclin D1 were 1.7 nM and 0.1 nM, respectively.
The like results for `CC(C(F)F)n1c(CO)nc2c(F)cc(-c3nc(N[C@@H]4CCN(S(C)(=O)=O)C[C@H]4O)ncc3Cl)cc21` (stereo partly drawn) [Example A92, (3R,4R)-4-({5-chloro-4-[1-(1,1-difluoropropan-2-yl)-4-fluoro-2-(hydroxymethyl)-1H-benzimidazol-6-yl]pyrimidin-2-yl}amino)-1-(methanesulfonyl)piperidin-3-ol] were, in that order, 42.9 nM, 23.8 nM, 0.9 nM and 0.1 nM.
The like results for `Cc1nc2c(F)cc(-c3nc(N[C@@H]4CCN(S(C)(=O)=O)C[C@H]4O)ncc3Cl)cc2n1C(C)C` [Example A01, (3R,4R)-4-({5-chloro-4-[4-fluoro-2-methyl-1-(propan-2-yl)-1H-benzimidazol-6-yl]pyrimidin-2-yl}amino)-1-(methanesulfonyl)piperidin-3-ol] were, in that order, 76.5 nM, 25.3 nM, 2.3 nM and 0.1 nM.
The like results for `CNCC(=O)N1CC[C@@H](Nc2ncc(F)c(-c3cc(F)c4nc(C)n(C(C)C)c4c3)n2)[C@H](O)C1` [Example F23, 1-[(3R,4R)-4-({5-fluoro-4-[4-fluoro-2-methyl-1-(propan-2-yl)-1H-benzimidazol-6-yl]pyrimidin-2-yl}amino)-3-hydroxypiperidin-1-yl]-2-(methylamino)ethan-1-one] were, in that order, 1320 nM, 692 nM, 11 nM and 1 nM.
On to `CC(N)c1nc2c(F)cc(-c3nc(N[C@@H]4CCN(S(C)(=O)=O)C[C@H]4O)ncc3Cl)cc2n1C(C)C` (single isomer, unassigned) [Example A48], for which the figures for the IC50 on CDK6 and on CDK4 were 58.9 nM and 36.5 nM, respectively. Further, the Ki on CDK6/Cyclin D3 was found to be 2.3 nM; on CDK4/Cyclin D1, 0.1 nM.
The like results for `COCC(C)n1c(C)nc2c(F)cc(-c3nc(N[C@@H]4CCN(S(C)(=O)=O)C[C@H]4O)ncc3Cl)cc21` (single isomer, unassigned) [Example A73] were, in that order, 188 nM, 72 nM, 16.1 nM and 0.9 nM.
In the same order, the values of `CC(C)n1c(C(C)(O)C2CC2)nc2c(F)cc(-c3nc(N[C@@H]4CCOC[C@H]4O)ncc3Cl)cc21` (single isomer, unassigned) [Example A24] are 167 nM, 40.1 nM, 16.4 nM and 1.3 nM.
`CC(C)NCc1nc2c(F)cc(-c3nc(N[C@@H]4CCN(S(C)(=O)=O)C[C@H]4O)ncc3Cl)cc2n1C(C)C` [Example H10, (3R,4R)-4-({5-chloro-4-[4-fluoro-1-(propan-2-yl)-2-{[(propan-2-yl)amino]methyl}-1H-benzimidazol-6-yl]pyrimidin-2-yl}amino)-1-(methanesulfonyl)piperidin-3-ol]: the IC50 came to 51.1 nM at CDK6 and 14.9 nM at CDK4. Further, the Ki at CDK6/Cyclin D3 was 16.4 nM; on CDK4/Cyclin D1, 0.5 nM.
The like results for `CC1(C)OCCn2nc3c(F)cc(-c4nc(N[C@@H]5CCN(S(C)(=O)=O)C[C@H]5O)ncc4Cl)cc3c21` [Example A26] were, in that order, 24.3 nM, 12.2 nM, 4.2 nM and 0.2 nM.
In the same order, the values of `C[C@H](O)C(=O)N1CC[C@@H](Nc2ncc(Cl)c(-c3cc(F)c4ncn(C(C)(C)C)c4c3)n2)[C@H](O)C1` [Example F21, (2S)-1-[(3R,4R)-4-{[4-(1-tert-butyl-4-fluoro-1H-benzimidazol-6-yl)-5-chloropyrimidin-2-yl]amino}-3-hydroxypiperidin-1-yl]-2-hydroxypropan-1-one] are 246 nM, 59.5 nM, 7.7 nM and 0.4 nM.
The like results for `CNCC(=O)N1CC[C@@H](Nc2ncc(Cl)c(-c3cc(F)c4ncn(C(C)(C)C)c4c3)n2)[C@H](O)C1` [Example F25, 1-[(3R,4R)-4-{[4-(1-tert-butyl-4-fluoro-1H-benzimidazol-6-yl)-5-chloropyrimidin-2-yl]amino}-3-hydroxypiperidin-1-yl]-2-(methylamino)ethan-1-one] were, in that order, 455 nM, 455 nM, 19.3 nM and 1.2 nM.
For `CNCc1nc2c(F)cc(-c3nc(N[C@@H]4CCOC[C@H]4O)ncc3Cl)cc2n1C(C)C` [Example A44, 1,5-anhydro-3-[(5-chloro-4-{4-fluoro-2-[(methylamino)methyl]-1-(propan-2-yl)-1H-benzimidazol-6-yl}pyrimidin-2-yl)amino]-2,3-dideoxy-D-threo-pentitol], the 50% inhibitory concentration (IC50) came to 408 nM on CDK6 and 76.5 nM on CDK4. The Ki was found to be 114 nM at CDK6/Cyclin D3 and 4.9 nM at CDK4/Cyclin D1.
Take `C[C@H]1COCc2nc3c(F)cc(-c4nc(N[C@@H]5CCN(S(C)(=O)=O)C[C@H]5O)ncc4Cl)cc3n21` [Example A10]: the IC50 on CDK6 was determined as 195 nM; at CDK4, 72.7 nM. For the same molecule, the Ki worked out at 10.4 nM on CDK6/Cyclin D3 and 0.6 nM at CDK4/Cyclin D1.
In the same order, the values of `CC(C)(CN)n1cnc2c(F)cc(-c3nc(N[C@@H]4CCOC[C@H]4O)ncc3Cl)cc21` [Example A51, 3-({4-[1-(1-amino-2-methylpropan-2-yl)-4-fluoro-1H-benzimidazol-6-yl]-5-chloropyrimidin-2-yl}amino)-1,5-anhydro-2,3-dideoxy-D-threo-pentitol] are 1530 nM, 245 nM, 55.7 nM and 2 nM.
In the same order, the values of `CC(C)n1cnc2c(Cl)cc(-c3nc(N[C@@H]4CCN(C(=O)[C@@H](C)O)C[C@H]4O)ncc3Cl)cc21` [Example F20, (2R)-1-[(3R,4R)-4-({5-chloro-4-[4-chloro-1-(propan-2-yl)-1H-benzimidazol-6-yl]pyrimidin-2-yl}amino)-3-hydroxypiperidin-1-yl]-2-hydroxypropan-1-one] are 787 nM, 155 nM, 24.3 nM and 2 nM.
The like results for `CC1(C)OCCn2nc3c(F)cc(-c4nc(N[C@@H]5CCOC[C@H]5O)ncc4Cl)cc3c21` [Example A27] were, in that order, 269 nM, 75.6 nM, 15.7 nM and 1 nM.
As for `Cc1nc2c(F)cc(-c3nc(N[C@@H]4CCN(S(C)(=O)=O)C[C@H]4O)ncc3F)cc2n1C(C)C` [Example A02], the IC50 at CDK6 is 163 nM; on CDK4, 88.6 nM. The figures for the Ki on CDK6/Cyclin D3 and at CDK4/Cyclin D1 were 2.5 nM and 0.1 nM, respectively.
In the case of `CC1(C)CCc2nc3c(F)cc(-c4nc(N[C@@H]5CCN(S(C)(=O)=O)C[C@H]5O)ncc4Cl)cc3n21` [Example A09], the half-inhibitory concentration (IC50) was 57.6 nM at CDK6 and 16.8 nM at CDK4. Moreover, the Ki at CDK6/Cyclin D3 was 1.4 nM; on CDK4/Cyclin D1, 0.1 nM.
In the same order, the values of `CC(C)n1c(CN2C[C@@](C)(O)[C@@H]2C)nc2c(F)cc(-c3nc(N[C@@H]4CCOC[C@H]4O)ncc3Cl)cc21` [Example H04, 1,5-anhydro-3-({5-chloro-4-[4-fluoro-2-{[(2S,3R)-3-hydroxy-2,3-dimethylazetidin-1-yl]methyl}-1-(propan-2-yl)-1H-benzimidazol-6-yl]pyrimidin-2-yl}amino)-2,3-dideoxy-D-threo-pentitol] are 221 nM, 63.4 nM, 38.2 nM and 0.8 nM.
The like results for `CNC(=O)CN1CC[C@@H](Nc2cc(-c3ccc4ncn(C(C)(C)C)c4n3)c(Cl)cn2)[C@H](O)C1` [Example F33, 2-[(3R,4R)-4-{[4-(3-tert-butyl-3H-imidazo[4,5-b]pyridin-5-yl)-5-chloropyridin-2-yl]amino}-3-hydroxypiperidin-1-yl]-N-methylacetamide] were, in that order, 113 nM, 24.6 nM, 5.2 nM and 0.2 nM.
